Assay [1] has as its target T1, MSH2 (human MutSbeta) (Homo sapiens, UniProt P43246).
T1 construct: Msh2(1-934), Gene ID NP_000242.1
The assay is described as follows: ATP binding and cross-linking assay (MSH2 subunit). To be noted: [32P]-ATP UV cross-linking to MSH2 subunit of MutSbeta; read-out: cross-link assay IC50 MSH2. As to the method:
(§1) ATP binding and cross-linking assay: Enzyme human MutSbeta (Msh2(1-934), Gene ID NP_000242.1, Msh3(1-1137), Gene ID J04810.1) was adjusted to 0.2 μM and, in experiments in the presence of 22 bp biotin-labeled DNA containing a GT-mismatch (purchased from Curia Global, TOP 5′-[…]-3′; BOT 3′-AGTAGCTAGGC - - - CGAAGTCTACC-5′-Biotin), pre-incubated with DNA at equimolar concentration for indicated time and temperature. All reagents were kept on ice. Enzyme was then incubated on ice for the indicated time with 5 nM γ-[^32P]-ATP (Hartmann Analytic, FP-301) or α-[^32P]-ATP (Perkin Elmer, NEG003H250UCSBF4 or Hartmann Analytic, FP-207) and addition of cold ATP (10 μM) or ADP (0.3 μM). The total volume was 20 μL and the samples were handled in Eppendorf reaction tubes. The assay buffer was 25 mM HEPES pH=7.5, 150 mM KCl, 5 mM MgCl2, 5 mM GSH, 0.01% Tween-20. All steps with radioactive ATP were conducted behind appropriate shielding. The samples were then placed on dry ice until they were frozen solid. […] The screen was analyzed in the imager (GE Healthcare, Fluorescent Image Analyzer, Typhoon FLA 7000, #5622514B), and the image was analyzed with imageJ software.

Assay [2] deals with T2, MSH3 (human MutSbeta) (Homo sapiens, UniProt P20585).
T2 construct: Msh3(1-1137), Gene ID J04810.1
Put plainly: ATP binding and cross-linking assay (MSH3 subunit). To be noted: [32P]-ATP UV cross-linking to MSH3 subunit of MutSbeta; read-out: cross-link assay IC50 MSH3. As for the experimental part:
as §1

The nature of assay [3]: P33 SPA counter assay (absence of enzyme). The following applies: interference with detection system. As to the method:
P33 SPA counter assay: This assay was used in the absence of enzyme to determine whether the test compound interferes with the detection system. Otherwise, the same protocol and assay buffer as in the main SPA assay were applied (25 mM HEPES pH=7.5, 150 mM KCl, 2 mM MgCl2, 2 mM GSH, 0.01% Tween-20) and instead of enzyme addition, assay buffer was added. Hydrolysis of substrate (γ-[^33P]-ATP, 0.1 nM; Hartmann Analytic, FF-301; and cold ATP, 10 μM) to a similar level as under enzymatic conditions was achieved by incubation at 50° C. for 4 days. Decay of [^33P] with a half-life of 25.4 days was corrected by increasing the concentration of the labelled nucleotide with the appropriate factor; all steps with radioactive ATP were conducted behind appropriate shielding. After addition of pre-treated ATP substrate (10 μL) to the compounds and addition of buffer (10 μL, instead of enzyme), 20 μL of a 1:2 mix of ammonium molybdate (20 mg/mL Ammonium molybdate in 2.4M HCl) and SPA beads (ProteinA SPA beads from Perkin Elmer Cat #RPNQ0019 at 7.5 mg/mL+1% azide) was added per well and incubated at RT for 2 min. Then, 40 μL of 7 M CsCl and 0.1 M citrate was added per well and incubated for 1 h at room temperature before measuring on the MicroBeta (top read mode, 1 min per well). For full plate processing, all reagents were transferred with a pipettor (Selma, CyBio) apart from the final reagent (CsCl+citrate) which was added with a dispenser (MultiFlo, BioTek). Data analysis during assay development was done with Prism GraphPad, and IC50 fitting for whole compound plates was done with the in-house software Aplus.

T1 sequence (P43246 whole entry): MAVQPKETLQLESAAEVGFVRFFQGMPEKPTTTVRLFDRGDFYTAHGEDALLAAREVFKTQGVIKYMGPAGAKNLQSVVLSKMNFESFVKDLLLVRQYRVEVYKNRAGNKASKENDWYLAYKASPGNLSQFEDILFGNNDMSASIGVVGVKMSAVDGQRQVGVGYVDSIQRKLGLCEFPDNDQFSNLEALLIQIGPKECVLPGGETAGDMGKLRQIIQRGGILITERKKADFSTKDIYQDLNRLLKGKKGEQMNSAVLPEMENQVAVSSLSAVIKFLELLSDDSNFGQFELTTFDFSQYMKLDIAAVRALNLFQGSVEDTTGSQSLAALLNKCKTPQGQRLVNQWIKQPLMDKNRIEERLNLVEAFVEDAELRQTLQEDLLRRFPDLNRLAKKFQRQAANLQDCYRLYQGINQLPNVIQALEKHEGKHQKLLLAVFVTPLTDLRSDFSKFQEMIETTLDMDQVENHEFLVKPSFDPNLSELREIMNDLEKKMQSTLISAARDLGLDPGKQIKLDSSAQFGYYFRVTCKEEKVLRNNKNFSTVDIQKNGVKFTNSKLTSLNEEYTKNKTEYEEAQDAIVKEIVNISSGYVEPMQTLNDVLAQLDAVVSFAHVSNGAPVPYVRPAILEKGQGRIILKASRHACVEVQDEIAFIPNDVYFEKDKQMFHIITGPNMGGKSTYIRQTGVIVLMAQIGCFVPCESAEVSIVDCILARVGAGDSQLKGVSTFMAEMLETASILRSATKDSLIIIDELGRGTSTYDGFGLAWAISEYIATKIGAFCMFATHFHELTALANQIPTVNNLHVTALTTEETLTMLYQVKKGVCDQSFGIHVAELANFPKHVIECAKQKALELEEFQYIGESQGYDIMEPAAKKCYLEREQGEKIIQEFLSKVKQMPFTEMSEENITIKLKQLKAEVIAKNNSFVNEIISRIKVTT
T1 sequence (P20585 whole entry partner): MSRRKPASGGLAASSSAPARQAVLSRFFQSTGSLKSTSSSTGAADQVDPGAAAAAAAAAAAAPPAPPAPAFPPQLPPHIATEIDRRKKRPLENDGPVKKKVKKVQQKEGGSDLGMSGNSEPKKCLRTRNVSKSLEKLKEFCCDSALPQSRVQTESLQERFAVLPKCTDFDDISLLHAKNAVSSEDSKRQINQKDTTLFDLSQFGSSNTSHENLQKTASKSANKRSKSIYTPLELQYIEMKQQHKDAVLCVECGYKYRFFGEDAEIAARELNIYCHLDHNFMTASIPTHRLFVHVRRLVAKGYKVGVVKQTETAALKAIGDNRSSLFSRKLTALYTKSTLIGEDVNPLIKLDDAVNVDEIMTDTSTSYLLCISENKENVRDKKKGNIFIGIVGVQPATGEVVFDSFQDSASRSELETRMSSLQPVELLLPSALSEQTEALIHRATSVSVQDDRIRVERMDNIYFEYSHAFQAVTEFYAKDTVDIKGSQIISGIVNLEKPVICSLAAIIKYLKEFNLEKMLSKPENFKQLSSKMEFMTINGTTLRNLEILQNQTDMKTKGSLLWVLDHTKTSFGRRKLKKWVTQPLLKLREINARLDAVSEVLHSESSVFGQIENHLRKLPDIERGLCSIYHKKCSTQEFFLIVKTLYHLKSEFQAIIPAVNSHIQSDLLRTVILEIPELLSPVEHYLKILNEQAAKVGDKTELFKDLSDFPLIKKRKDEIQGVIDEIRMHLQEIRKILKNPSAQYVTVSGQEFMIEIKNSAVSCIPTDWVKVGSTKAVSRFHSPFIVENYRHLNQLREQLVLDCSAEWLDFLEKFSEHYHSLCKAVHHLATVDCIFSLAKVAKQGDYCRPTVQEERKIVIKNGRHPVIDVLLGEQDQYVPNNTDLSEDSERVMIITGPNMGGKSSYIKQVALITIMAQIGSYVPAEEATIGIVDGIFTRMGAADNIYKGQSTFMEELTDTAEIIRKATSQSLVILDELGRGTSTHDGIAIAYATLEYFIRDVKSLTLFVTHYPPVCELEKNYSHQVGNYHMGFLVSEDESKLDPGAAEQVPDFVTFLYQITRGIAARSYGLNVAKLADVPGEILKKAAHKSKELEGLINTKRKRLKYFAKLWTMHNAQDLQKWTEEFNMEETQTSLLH
T2 sequence (P20585 whole entry): as the sequence (P20585 whole entry partner) above
T2 sequence (P43246 whole entry partner): as the sequence (P43246 whole entry) above

As to `CCN1CCN(c2nc(Nc3ccc(Cl)cc3)c3nccnc3n2)CC1` [Compound 4, N-(4-Chlorophenyl)-2-(4-ethylpiperazin-1-yl)pteridin-4-amine], the results for the IC50 in assay [1], in assay [2] and in assay [3] were 215 µM, 9 µM and > 200 µM, respectively.
For the compound `Cc1ccc(Nc2nc(N3CCN(C)CC3)nc3nccnc23)cc1C` [Compound 2, N-(3,4-dimethylphenyl)-2-(4-methylpiperazin-1-yl)pteridin-4-amine], the IC50 was 120 µM in assay [1], 5 µM in assay [2] and > 200 µM in assay [3].

The term IC50 denotes the midpoint of a concentration-inhibition curve.
